Source: patent US20240358668A1, “METHODS AND CO[…] AM[…] CARD[…] USING (R)-2-AMINO-3-PH[…]” (AXSOME THERAPEUTICS, INC., priority 2021, published 2024)

Test system: participants with narcolepsy or OSA
Test: 1-year OLE study: blood pressure, parent study baseline to OLE week 40
Assay type: in vivo, human
Procedure: A 1-year open-label extension (OLE) study was performed with 374 participants to examined whether clinically significant weight loss (≥5%) in this population had favorable effects on biomarkers of cardiovascular risk compared to no such weight loss. The study measured changes in weight and BP (parent study baseline to OLE week 40) and clinical laboratory assessments (OLE baseline to week 40) in participants with narcolepsy (n=124) or OSA (n=250) who received solriamfetol at doses of 75, 150, or 300 mg/d.
We evaluated changes in weight and BP (parent study baseline to OLE week 40) and clinical laboratory assessments (OLE baseline to week 40) in participants with narcolepsy (n=124) or OSA (n=250) from the OLE study.

[1] = Weight loss <5% at Week 40, 75 mg/d
[2] = Weight loss <5% at Week 40, 150 mg/d
[3] = Weight loss <5% at Week 40, 300 mg/d
[4] = Weight loss <5% at Week 40, all doses
[5] = Weight loss <5% at Week 40, all doses, listed as Solri
[6] = Weight loss <5% at Week 40, all doses, listed as solriamfetol
[7] = Weight loss ≥5% at Week 40, 75 mg/d

NC(=O)OC[C@H](N)Cc1ccccc1 [Solriamfetol, (R)-2-amino-3-phenylpropyl carbamate]
DBP Change - Wk 40, Mean (SD) [1]: 0.2 (9.5) mmHg | DBP Change - Wk 40, Median [1]: 0.0 mmHg | DBP maximum changes from baseline to week 40: Decrease ≥10% [1]: 3 (14.3) n (%) | DBP maximum changes from baseline to week 40: Decrease ≥20% [1]: 0 n (%) | DBP maximum changes from baseline to week 40: Decrease ≥30% [1]: 0 n (%) | DBP maximum changes from baseline to week 40: Increase ≥10% [1]: 4 (19.0) n (%) | DBP maximum changes from baseline to week 40: Increase ≥20% [1]: 0 n (%) | DBP maximum changes from baseline to week 40: Increase ≥30% [1]: 0 n (%) | SBP Change - Wk 40, Mean (SD) [1]: −3.0 (12.3) mmHg | SBP Change - Wk 40, Median [1]: 0.50 mmHg | SBP maximum changes from baseline to week 40: Decrease ≥10% [1]: 6 (28.6) n (%) | SBP maximum changes from baseline to week 40: Decrease ≥20% [1]: 0 n (%) | SBP maximum changes from baseline to week 40: Decrease ≥30% [1]: 0 n (%) | SBP maximum changes from baseline to week 40: Increase ≥10% [1]: 5 (23.8) n (%) | SBP maximum changes from baseline to week 40: Increase ≥20% [1]: 0 n (%) | SBP maximum changes from baseline to week 40: Increase ≥30% [1]: 0 n (%) | DBP Change - Wk 40, Mean (SD) [2]: 2.3 (7.9) mmHg | DBP Change - Wk 40, Median [2]: 2.3 mmHg | DBP maximum changes from baseline to week 40: Decrease ≥10% [2]: 4 (3.8) n (%) | DBP maximum changes from baseline to week 40: Decrease ≥20% [2]: 1 (1.0) n (%) | DBP maximum changes from baseline to week 40: Decrease ≥30% [2]: 0 n (%) | DBP maximum changes from baseline to week 40: Increase ≥10% [2]: 16 (15.2) n (%) | DBP maximum changes from baseline to week 40: Increase ≥20% [2]: 3 (2.9) n (%) | DBP maximum changes from baseline to week 40: Increase ≥30% [2]: 0 n (%) | SBP Change - Wk 40, Mean (SD) [2]: 2.30 (12.1) mmHg | SBP Change - Wk 40, Median [2]: 2.00 mmHg | SBP maximum changes from baseline to week 40: Decrease ≥10% [2]: 15 (14.3) n (%) | SBP maximum changes from baseline to week 40: Decrease ≥20% [2]: 4 (3.8) n (%) | SBP maximum changes from baseline to week 40: Decrease ≥30% [2]: 0 n (%) | SBP maximum changes from baseline to week 40: Increase ≥10% [2]: 26 (24.8) n (%) | SBP maximum changes from baseline to week 40: Increase ≥20% [2]: 7 (6.7) n (%) | SBP maximum changes from baseline to week 40: Increase ≥30% [2]: 2 (1.9) n (%) | DBP Change - Wk 40, Mean (SD) [3]: 0.6 (9.1) mmHg | DBP Change - Wk 40, Median [3]: 1.5 mmHg | DBP maximum changes from baseline to week 40: Decrease ≥10% [3]: 20 (13.2) n (%) | DBP maximum changes from baseline to week 40: Decrease ≥20% [3]: 5 (3.3) n (%) | DBP maximum changes from baseline to week 40: Decrease ≥30% [3]: 0 n (%) | DBP maximum changes from baseline to week 40: Increase ≥10% [3]: 21 (13.8) n (%) | DBP maximum changes from baseline to week 40: Increase ≥20% [3]: 2 (1.3) n (%) | DBP maximum changes from baseline to week 40: Increase ≥30% [3]: 0 n (%) | SBP Change - Wk 40, Mean (SD) [3]: −0.37 (12.7) mmHg | SBP Change - Wk 40, Median [3]: 0.17 mmHg | SBP maximum changes from baseline to week 40: Decrease ≥10% [3]: 36 (23.7) n (%) | SBP maximum changes from baseline to week 40: Decrease ≥20% [3]: 10 (6.6) n (%) | SBP maximum changes from baseline to week 40: Decrease ≥30% [3]: 2 (1.3) n (%) | SBP maximum changes from baseline to week 40: Increase ≥10% [3]: 33 (21.7) n (%) | SBP maximum changes from baseline to week 40: Increase ≥20% [3]: 8 (5.3) n (%) | SBP maximum changes from baseline to week 40: Increase ≥30% [3]: 0 n (%) | DBP Change - Wk 40, Median [4]: 1.4 mmHg | DBP maximum changes from baseline to week 40: Decrease ≥10% [4]: 27 (9.7) n (%) | DBP maximum changes from baseline to week 40: Decrease ≥20% [4]: 6 (2.2) n (%) | DBP maximum changes from baseline to week 40: Decrease ≥30% [4]: 0 n (%) | DBP maximum changes from baseline to week 40: Increase ≥10% [4]: 41 (14.7) n (%) | DBP maximum changes from baseline to week 40: Increase ≥20% [4]: 5 (1.8) n (%) | DBP maximum changes from baseline to week 40: Increase ≥30% [4]: 0 n (%) | SBP Change - Wk 40, Median [4]: 0.50 mmHg | SBP maximum changes from baseline to week 40: Decrease ≥10% [4]: 57 (20.5) n (%) | SBP maximum changes from baseline to week 40: Decrease ≥20% [4]: 14 (5.0) n (%) | SBP maximum changes from baseline to week 40: Decrease ≥30% [4]: 2 (0.7) n (%) | SBP maximum changes from baseline to week 40: Increase ≥10% [4]: 64 (23.0) n (%) | SBP maximum changes from baseline to week 40: Increase ≥20% [4]: 15 (5.4) n (%) | SBP maximum changes from baseline to week 40: Increase ≥30% [4]: 2 (0.7) n (%) | DBP Change - Wk 40, Mean (SD) [5]: 1.2 (8.7) mmHg | SBP Change - Wk 40, Mean (SD) [5]: 0.65 (12.5) mmHg | DBP Change - Wk 40, Mean (SD) [6]: 1.2±8.7 mmHg | SBP Change - Wk 40, Mean (SD) [6]: 0.65±12.5 mmHg | DBP Change - Wk 40, Mean (SD) [7]: −3.8 mmHg | DBP Change - Wk 40, Median [7]: −3.8 mmHg
